Data reported in US6150373A, “Bicyclic nitrogen heterocycles” (Hoffmann-La Roche Inc., priority 1998, dated 2000).
Counter-ions that a name gives are not always drawn.

biological target: human recombinant p56^lck (Homo sapiens, UniProt P06239); experiment: Inhibition of T-cell tyrosine kinase p56^lck (incorporation of 33P from [γ-^33 P] ATP into peptide substrate); format: biochemical; conditions: 10 μM ATP, 20 μM peptide substrate, 30° C., 60 minutes, pH 7.5
Text: As mentioned earlier, the compounds of formula I, the pharmaceutically acceptable salts of basic compounds of formula I with acids, and the pharmaceutically acceptable salts of acidic compounds of formula I with bases, are all inhibitors of the T-cell tyrosine kinase p56^lck which will down-regulate T-cell activation leading to immunosuppression and decrease inflammation. Therefore, the compounds of the invention are anti-inflammatory agents which can be used in combating the inflammatory condition which occurs in various diseases, as well as immunosuppressives which can be used, for example, for preventing graft rejection in transplantation therapy.
Reaction mixtures (25 μl) containing human recombinant p56^lck, 10 mM MnCl2, 10-μM ATP, 0.2 mM sodium vanadate, 20 μM peptide substrate (AlaGluGluGluIleTyr-GlyGlu-PheGluAlaLysLysLysLys, [γ-^33 P] ATP (1000-2000 cpm/pmol) in 25 mM HEPES buffer (pH 7.5) and 0.1% Triton X-100 are incubated at 30° C. for 60 minutes and the reaction is then stopped by the addition of 10 μl of 2% orthophosphoric acid. Radiolabelled peptide is separated from unreacted [γ-^33 P] ATP by filtration through Millipore Multiscreen phosphocellulose cation exchange paper filters. Bound peptide is washed with 0.5% orthophosphoric acid and incorporated radioactivity is determined by scintillation spectrometry.
The degree of enzyme blockade at each concentration of test compound is calculated from the following equation: [formula]
The IC50 value is that concentration of test compound which reduces by 50% the protein kinase-induced incorporation of the radiolabel under the test conditions described earlier.

human recombinant p56^lck, sequence (P06239 whole entry): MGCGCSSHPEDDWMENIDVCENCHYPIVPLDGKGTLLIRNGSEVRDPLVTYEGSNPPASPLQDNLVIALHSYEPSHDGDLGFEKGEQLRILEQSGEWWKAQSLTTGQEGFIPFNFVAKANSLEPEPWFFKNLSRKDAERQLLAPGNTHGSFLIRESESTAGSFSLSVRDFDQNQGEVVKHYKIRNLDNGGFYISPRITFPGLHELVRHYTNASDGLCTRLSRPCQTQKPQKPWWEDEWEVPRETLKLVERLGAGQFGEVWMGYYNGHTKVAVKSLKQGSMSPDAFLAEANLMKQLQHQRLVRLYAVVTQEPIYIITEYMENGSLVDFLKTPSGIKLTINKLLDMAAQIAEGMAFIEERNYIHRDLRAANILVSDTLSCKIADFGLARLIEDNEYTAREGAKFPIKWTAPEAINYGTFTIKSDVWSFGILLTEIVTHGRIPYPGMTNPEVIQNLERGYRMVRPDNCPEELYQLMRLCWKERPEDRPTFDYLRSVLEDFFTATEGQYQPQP

| SMILES | IC50 |
| --- | --- |
| CCN(CC)CCOc1ccc(Nc2ncc3c(n2)N(c2cccc(CCN(C)C)c2)C(=O)N(c2ccc(Cl)cc2Cl)C3)cc1 [Example 82, 3-(2,4-dichlorophenyl)-7-[4-[2-(diethylamino)ethoxy]anilino]-3,4-dihydro-1-[3-(2-(dimethylamino)ethyl)phenyl]pyrimido[4,5-d]pyrimidin-2(1H)-one] | 0.4 nM |
| CCC(CC)(CN)c1cccc(N2C(=O)N(c3c(Cl)cccc3Cl)Cc3cnc(Nc4ccccc4)nc32)c1 [Example 85, 1-[3-(1-aminomethyl-1-ethyl-propyl)-phenyl]-3-(2,6-dichloro-phenyl)-7-phenylamino-3,4-dihydro-pyrimido[4,5-d]pyrimidin-2(1H)-one trifluoroacetate] | 7 nM |
| NCCc1cccc(N2C(=O)N(c3c(Cl)cccc3Cl)Cc3cnc(Nc4ccccc4)nc32)c1 [Example 38, 1-[3-(2-aminoethyl)phenyl]-7-anilino-3-(2,6-dichlorophenyl)-3,4-dihydropyrimido[4,5-d]pyrimidin-2(1H)-one] | 0.03 nM |
| O=C1N(c2c(Cl)cccc2Cl)Cc2cnc(Nc3ccncc3)nc2N1c1ccccc1 [Example 22, 3-(2,6-dichlorophenyl)-3,4-dihydro-1-phenyl-7-[(4-pyridyl)amino]pyrimido[4,5-d]pyrimidin-2(1H)-one] | 265 nM |
| O=C1N(c2ccccc2Br)Cc2cnc(Nc3ccccc3)nc2N1c1ccc(CO)cc1 [Example 63, 7-anilino-3-(2-bromophenyl)-3,4-dihydro-1-[4-(hydroxymethyl)phenyl]pyrimido[4,5-d]pyrimidin-2(1H)-one] | 17 nM |
| NCCc1cccc(N2C(=O)N(c3ccccc3Br)Cc3cnc(Nc4ccccc4)nc32)c1 [Example 50, 1-[3-(2-aminoethyl)phenyl]-7-anilino-3-(2-bromophenyl)-3,4-dihydropyrimido[4,5-d]pyrimidin-2(1H)-one] | 6 nM |

Second part, the compound after the results:

| IC50 | SMILES |
| --- | --- |
| 10 nM | CCN(CC)CCOc1ccc(Nc2ncc3c(n2)N(C)C(=O)N(c2c(Cl)cccc2Cl)C3)cc1 [Example 1, 3-(2,6-dichlorophenyl)-7-[4-[2-(diethylamino)ethoxy]anilino]-3,4-dihydro-1-methylpyrimido[4,5-d]pyrimidin-2(1H)-one] |
| 0.6 nM | CCN(CC)CCOc1ccc(Nc2ncc3c(n2)N(c2ccccc2)C(=O)N(c2c(Cl)cccc2Cl)C3)cc1 [Example 7, 3-(2,6-dichlorophenyl)-7-[4-[2-(diethylamino)ethoxy]anilino]-3,4-dihydro-1-phenylpyrimido[4,5-d]pyrimidin-2(1H)-one] |
| 19 nM | CCN(CC)CCOc1ccc(Nc2ncc3c(n2)N(Cc2cccnc2)C(=O)N(c2c(Cl)cccc2Cl)C3)cc1 [Example 10, 3-(2,6-dichlorophenyl)-7-[4-[2-(diethylamino)ethoxy]anilino]-3,4-dihydro-1-[(3-pyridyl)-methyl]pyrimido[4,5-d]pyrimidin-2(1H)-one trifluoroacetate] |
